# From patent US9045389B2, “Biphenyl derivatives useful as glucagon receptor antagonists” (Janssen Pharmaceutica NV, priority 2011, dated 2015)
# Molecular target: human GCGR (Homo sapiens (Human), UniProt P47871)
# Experiment: Cellular functional assay, cAMP readout: glucagon stimulated cAMP in HEK293 cells expressing human GCGR (LANCE TR-FRET)
# Type: cell-based
# Procedure: IC50 Values in Cellular Functional Assays: cAMP Readout
# Full-length human GCGR (Accession Number: NM000160) subcloned into pcDNA3.1 was stably transfected into HEK293 cells (hGluc-1 HEK) and maintained under G418 selection (500 μg/mL). Cell cultures were maintained in DMEM/F12 media supplemented with 10% FBS and 1% GlutaMax. Glucagon stimulated cAMP was quantified using LANCE technology as per manufacturer instructions. On the day of the experiment, spent media was removed and cells were washed with Hank's Buffered Saline solution (HBSS) and cells were harvested with non-enzymatic cell dissociation solution, then washed once with HBSS. Cells were re-suspended in stimulation buffer at a concentration of 0.83×10^6 cells/ml and cAMP detection antibody was added. 6 μl/well of this solution was then dispensed in a 384 well plate (cell density 5000 cells/well). Test compound was serially diluted in DMSO and 50 nl were dispensed on top of the cell solution and allowed to incubate for 30 minutes. 6 μl of a 2× glucagon solution (final concentration in assay 100 pM) was then added and the reaction was terminated after 5 minutes with the addition of detection mix. The resulting mixture was incubated, protected from light for 1.5 h. cAMP levels were quantified by TR-FRET in an EnVision instrument against a known standard. IC50's were generated by using a non-linear regression macro driven in Excel and converted to Ki values.
# Chain of human GCGR (P47871 26-477): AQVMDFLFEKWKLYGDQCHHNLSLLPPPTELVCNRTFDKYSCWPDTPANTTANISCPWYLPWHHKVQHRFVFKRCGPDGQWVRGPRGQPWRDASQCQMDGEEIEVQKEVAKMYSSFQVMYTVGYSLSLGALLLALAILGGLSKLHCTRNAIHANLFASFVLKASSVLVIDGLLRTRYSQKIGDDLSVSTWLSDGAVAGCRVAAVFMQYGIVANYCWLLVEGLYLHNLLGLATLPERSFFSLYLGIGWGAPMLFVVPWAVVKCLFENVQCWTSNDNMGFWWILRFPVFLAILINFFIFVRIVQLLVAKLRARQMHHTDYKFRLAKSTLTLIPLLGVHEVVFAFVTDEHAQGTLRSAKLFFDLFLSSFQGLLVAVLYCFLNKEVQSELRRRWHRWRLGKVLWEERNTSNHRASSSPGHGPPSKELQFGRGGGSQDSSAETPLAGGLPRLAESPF
row,Structure (SMILES),Ki
1,"O=C(O)CCNC(=O)c1ccc(-c2cc(C(F)(F)F)ccc2CNc2ccc(-c3ccc(C(F)(F)F)cc3Cl)c(Cl)c2)cc1 [Compound 3, 3-(2′-(((2,2′-dichloro-4′-(trifluoromethyl)-[1,1′-biphenyl]-4-yl)amino)methyl)-5′-(trifluoromethyl)-[1,1′-biphenyl]-4-ylcarboxamido)propanoic acid]",67 nM
2,"O=C(O)CCNC(=O)c1ccc(-c2cc(C(F)(F)F)ccc2CNc2ccc(-c3ccc(Cl)cc3Cl)cc2)cc1 [Compound 4, 3-(2′-(((2′,4′-dichloro-[1,1′-biphenyl]-4-yl)amino)methyl)-5′-(trifluoromethyl)-[1,1′-biphenyl]-4-ylcarboxamido)propanoic acid]",150 nM
3,"COc1cc(C(F)(F)F)cc(-c2ccc(C(=O)NCCC(=O)O)cc2)c1CNc1ccc(-c2ccc(C(F)(F)F)cc2Cl)cc1 [Compound 16, 3-(2′-(((2′-chloro-4′-(trifluoromethyl)-[1,1′-biphenyl]-4-yl)amino)methyl)-3′-methoxy-5′-(trifluoromethyl)-[1,1′-biphenyl]-4-ylcarboxamido)propanoic acid]",47 nM
4,"Cc1cc(Cl)ccc1-c1ccc(NCc2ccc(C(F)(F)F)cc2-c2ccc(C(=O)NCCC(=O)O)cc2C)cc1Cl [Compound 5, 3-(2′-(((2,4′-dichloro-2′-methyl-[1,1′-biphenyl]-4-yl)amino)methyl)-2-methyl-5′-(trifluoromethyl)-[1,1′-biphenyl]-4-ylcarboxamido)propanoic acid]",89 nM
5,"Cc1cc(C(F)(F)F)ccc1-c1ccc(NCc2ccc(C(F)(F)F)cc2-c2ccc(C(=O)NCCC(=O)O)cc2)cc1Cl [Compound 2, 3-(2′-(((2-chloro-2′-methyl-4′-(trifluoromethyl)-[1,1′-biphenyl]-4-yl)amino)methyl)-5′-(trifluoromethyl)-[1,1′-biphenyl]-4-ylcarboxamido)propanoic acid]",42 nM
6,"Cc1cc(C(F)(F)F)ccc1-c1ccc(NCc2ccc(C(F)(F)F)cc2-c2ccc(C(=O)NCCC(=O)O)cc2C)cc1Cl [Compound 6, 3-(2′-(((2-chloro-2′-methyl-4′-(trifluoromethyl)-[1,1′-biphenyl]-4-yl)amino)methyl)-2-methyl-5′-(trifluoromethyl)-[1,1′-biphenyl]-4-ylcarboxamido)propanoic acid]",70 nM
7,"Cc1cc(Cl)ccc1-c1ccc(NCc2ccc(C(F)(F)F)cc2-c2ccc(C(=O)NCCC(=O)O)cc2)cc1Cl [Compound 1, 3-(2′-(((2,4′-dichloro-2′-methyl-[1,1′-biphenyl]-4-yl)amino)methyl)-5′-(trifluoromethyl)-[1,1′-biphenyl]-4-ylcarboxamido)propanoic acid]",57 nM
8,"Cc1cc(C(F)(F)F)ccc1-c1ccc(NCc2c(-c3ccc(C(=O)NCCC(=O)O)cc3)cc(C(F)(F)F)cc2C(C)C)cc1Cl [Compound 17, 3-(2′-(((2-chloro-2′-methyl-4′-(trifluoromethyl)-[1,1′-biphenyl]-4-yl)amino)methyl)-3′-isopropyl-5′-(trifluoromethyl)-[1,1′-biphenyl]-4-ylcarboxamido)propanoic acid]",30 nM
9,"COc1cc(C(F)(F)F)cc(-c2ccc(C(=O)NCCC(=O)O)cc2)c1CNc1ccc(-c2ccc(Cl)cc2)c(Cl)c1 [Compound 15, 3-(2′-(((2,4′-dichloro-[1,1′-biphenyl]-4-yl)amino)methyl)-3′-methoxy-5′-(trifluoromethyl)-[1,1′-biphenyl]-4-ylcarboxamido)propanoic acid]",57 nM
